From patent US8163740B2, “6-substituted benzoxazines” (Hoffmann-La Roche Inc., priority 2008, dated 2012)

The compounds below were run against recombinant human 5-HT5A receptor (Homo sapiens, UniProt P47898) (assay: [3H]LSD radioligand binding assay). Settings: [3H]LSD (approximately 1 nM); membranes from HEK-EBNA cells transiently expressing 5-HT5A; Ki by Cheng-Prussoff equation; read-out: Ki.
recombinant human 5-HT5A receptor, sequence (P47898 whole entry): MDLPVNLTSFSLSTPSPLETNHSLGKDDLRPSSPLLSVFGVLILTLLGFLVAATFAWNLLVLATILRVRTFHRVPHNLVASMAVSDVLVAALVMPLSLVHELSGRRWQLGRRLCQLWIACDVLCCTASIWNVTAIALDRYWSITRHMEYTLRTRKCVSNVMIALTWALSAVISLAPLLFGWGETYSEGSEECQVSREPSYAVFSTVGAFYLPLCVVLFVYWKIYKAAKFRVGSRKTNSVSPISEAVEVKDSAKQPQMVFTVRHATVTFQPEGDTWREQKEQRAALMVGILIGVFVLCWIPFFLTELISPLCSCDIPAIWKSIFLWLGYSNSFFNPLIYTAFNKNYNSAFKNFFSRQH
Procedure: A [^3H]LSD radioligand binding assay was used to determine the affinity of the compounds for the recombinant human 5-HT5A receptor, in membranes from transiently (cDNA) expressed 5-HT5A receptors in Human Embryonic Kidney-EBNA (HEK-EBNA) cells. Assay buffer consisted of Tris (50 mM) buffer containing 1 mM EGTA, 10 mM MgCl2 (pH 7.4) and 10 μM pargyline. The binding assay was carried out in 96-well-plates in the presence of [^3H]LSD (approximately 1 nM), approximately 2 μg/well of membrane protein, and 0.5 mg of Ysi-poly-1-lysine SPA beads in a final volume of 200 μl of buffer. Non-specific binding was defined using methiothepin 2 μM. Compounds were tested at 10 concentrations. All assays were conducted in duplicate and repeated at least two times. Assay plates were incubated for 120 min at room temperature before centrifugation. Bound ligand was determined using a Packard Topcount scintillation counter. IC50 values were calculated using a non-linear curve fitting program and Ki values calculated using the Cheng-Prussoff equation.
With `COc1cccc2c1C(NC1=Nc3ccc(C#N)cc3CO1)CO2` (racemic) [Example 141, rac-2-(4-Methoxy-2,3-dihydro-benzofuran-3-ylamino)-4H-benzo[d][1,3]oxazine-6-carbonitrile] the Ki was 160 nM.
Compound `O=C(CN1CCN(CC(F)(F)F)CC1)Nc1ccc2c(c1)COC(N[C@@H]1CCc3ccccc31)=N2` [Example 70, N-[2-((R)-Indan-1-ylamino)-4H-benzo[d][1,3]oxazin-6-yl]-2-[4-(2,2,2-trifluoro-ethyl)-piperazin-1-yl]-acetamide] has a Ki of 33 nM.
Work on `CS(=O)(=O)Nc1ccc2c(c1)COC(N[C@@H]1CCc3ccccc31)=N2` [Example 78, N-[2-((R)-Indan-1-ylamino)-4H-benzo[d][1,3]oxazin-6-yl]-methanesulfonamide] yielded a Ki of 4.44 nM.
For `Nc1ccc2c(c1)COC(NC1CCOc3ccccc31)=N2` (racemic) [Example 75, rac-N^2-Chroman-4-yl-4H-benzo[d][1,3]oxazine-2,6-diamine], the Ki was 16.3 nM.
Compound `COc1cccc2c1C(NC1=Nc3ccc(NS(=O)(=O)N(C)C)cc3CO1)CC2` (racemic) [Example 61, rac-N,N-(Dimethyl)-N′-{2-(7-Methoxy-indan-1-ylamino)-4H-benzo[d][1,3]oxazin-6-yl}-sulfamide] has a Ki of 2.6 nM.
Compound `c1cc(NC2=Nc3ccc(NCc4ncc[nH]4)cc3CO2)cc(C2CC2)c1` [Example 125, N^2-(3-Cyclopropyl-phenyl)-N^6-(1H-imdazol-2-ylmethyl)-4H-benzo[d][1,3]oxazine-2,6-diamine] has a Ki of 37.2 nM.
Compound `O=C(Nc1ccc2c(c1)COC(NC1CCCCCC1)=N2)C1CC1` [Example 95, Cyclopropanecarboxylic acid (2-cycloheptylamino-4H-benzo[d][1,3]oxazin-6-yl)-amide] has a Ki of 5.53 nM.
`CC(C)N1C2CCC1CC(NCC(=O)Nc1ccc3c(c1)COC(N[C@@H]1CCCc4ccccc41)=N3)C2` (stereo partly drawn) [Example 73, 2-((exo)-8-Isopropyl-8-aza-bicyclo[3.2.1]oct-3-ylamino)-N-{2-[(R)-(1,2,3,4-tetrahydro-naphthalen-1-yl)amino]-4H-benzo[d][1,3]oxazin-6-yl}-acetamide] was tested, and the Ki was 61.3 nM.
`c1cncc(CNc2ccc3c(c2)COC(N[C@@H]2CCc4ccccc42)=N3)c1` [Example 88, N^2—(R)-Indan-1-yl-N^6-pyridin-3-ylmethyl-4H-benzo[d][1,3]oxazine-2,6-diamine] showed a Ki of 1.68 nM.
For `CC(C)(O)CNCC(=O)Nc1ccc2c(c1)COC(NC1COc3cc(F)ccc31)=N2` (racemic) [Example 43, rac-N-[2-(6-Fluoro-2,3-dihydro-benzofuran-3-ylamino)-4H-benzo[d][1,3]oxazin-6-yl]-2-(2-hydroxy-2-methyl-propylamino)-acetamide], the Ki was 50.3 nM.
Compound `O=C(Nc1ccc2c(c1)COC(NC1CCCCCCC1)=N2)C1CC1` [Example 155, Cyclopropanecarboxylic acid (2-cyclooctylamino-4H-benzo[d][1,3]oxazin-6-yl)-amide] has a Ki of 1.3 nM.
For `O=S(=O)(Nc1ccc2c(c1)COC(N[C@@H]1CCc3ccccc31)=N2)C1CC1` [Example 79, Cyclopropanesulfonic acid [2-((R)-indan-1-ylamino)-4H-benzo[d][1,3]oxazin-6-yl]-amide], the Ki was 1.81 nM.
With `CC1(C)Cc2cccc(NC3=Nc4ccc(NCc5ncc[nH]5)cc4CO3)c2O1` [Example 131, N^2-(2,2-Dimethyl-2,3-dihydro-benzofuran-7-yl)-N^6-(1H-imidazol-2-ylmethyl)-4H-benzo[d][1,3]oxazine-2,6-diamine] the Ki was 17.9 nM.
Compound `c1csc(CNc2ccc3c(c2)COC(NC2CCCCCC2)=N3)n1` [Example 98, N^2-Cycloheptyl-N^6-thiazol-2-ylmethyl-4H-benzo[d][1,3]oxazine-2,6-diamine] has a Ki of 19.3 nM.
Work on `COc1cccc2c1C(NC1=Nc3ccc(NC(=O)CN4CCN(C)CC4)cc3CO1)CO2` (racemic) [Example 9, rac-N-[2-(4-Methoxy-2,3-dihydro-benzofuran-3-ylamino)-4H-benzo[d][1,3]oxazin-6-yl]-2-(4-methyl-piperazin-1-yl)-acetamide] yielded a Ki of 5.69 nM.
For `COc1cccc2c1C(NC1=Nc3ccc(NC(=O)CN4CCN(C)C(CO)C4)cc3CO1)CC2` (stereo not drawn) [Example 116, 2-(3-Hydroxymethyl-4-methyl-piperazin-1-yl)-N-[2-(7-methoxy-indan-1-ylamino)-4H-benzo[d][1,3]oxazin-6-yl]-acetamide], the Ki was 2.89 nM.
`Cc1ccc(CNC2=Nc3ccc(NC(=O)CN4CCN(C)CC4)cc3CO2)o1` [Example 84, N-{2-[(5-Methyl-furan-2-ylmethyl)-amino]-4H-benzo[d][1,3]oxazin-6-yl}-2-(4-methyl-piperazin-1-yl)-acetamide] showed a Ki of 26.8 nM.
`CC(C)N1CCC(NC(=O)Nc2ccc3c(c2)COC(NC2CCCCCC2)=N3)CC1` [Example 124, 1-(2-Cycloheptylamino-4H-benzo[d][1,3]oxazin-6-yl)-3-(1-isopropyl-piperidin-4-yl)-urea] showed a Ki of 3.32 nM.
Compound `COc1cccc2c1C(NC1=Nc3ccc(NS(=O)(=O)N4CCCCC4)cc3CO1)CC2` (racemic) [Example 62, rac-Piperidine-1-sulfonic acid [2-(7-methoxy-indan-1-ylamino)-4H-benzo[d][1,3]oxazin-6-yl]-amide] has a Ki of 3.26 nM.
`O=S(=O)(Nc1ccc2c(c1)COC(NC1CCCCCC1)=N2)c1ccccc1` [Example 100, N-(2-Cycloheptylamino-4H-benzo[d][1,3]oxazin-6-yl)-benzenesulfonamide] was tested, and the Ki was 74.7 nM.
Work on `COc1ccccc1CNC1=Nc2ccc([N+](=O)[O-])cc2CO1` [Example 1, (2-Methoxy-benzyl)-(6-nitro-4H-benzo[d][1,3]oxazin-2-yl)-amine] yielded a Ki of 390 nM.
Compound `Nc1ccc2c(c1)COC(NCCOc1ccccc1)=N2` [Example 87, N^2-(2-Phenoxy-ethyl)-4H-benzo[d][1,3]oxazine-2,6-diamine] has a Ki of 3.6 nM.
In the case of `COCCNCC(=O)Nc1ccc2c(c1)COC(N[C@@H]1CCc3ccccc31)=N2` [Example 69, N-[2-((R)-Indan-1-ylamino)-4H-benzo[d][1,3]oxazin-6-yl]-2-(2-methoxy-ethylamino)-acetamide], the Ki is reported as 8.34 nM.
`COc1cccc2c1C(NC1=Nc3ccc(NC(=O)CN4CCOCC4)cc3CO1)CC2` (racemic) [Example 55, rac-N-[2-(7-Methoxy-indan-1-ylamino)-4H-benzo[d][1,3]oxazin-6-yl]-2-morpholin-4-yl-acetamide] showed a Ki of 10.3 nM.
In the case of `COc1cccc2c1C(NC1=Nc3ccc(NC(=O)NC4CCN(C(C)C)CC4)cc3CO1)CO2` (racemic) [Example 14, rac-1-(1-Isopropyl-piperidin-4-yl)-3-[2-(4-methoxy-2,3-dihydro-benzofuran-3-ylamino)-4H-benzo[d][1,3]oxazin-6-yl]-urea], the Ki is reported as 4.37 nM.
Compound `COc1ccccc1CNC1=Nc2ccc(NC(=O)CN3CCN(C)CC3)cc2CO1` [Example 26, N-[2-(2-Methoxy-benzylamino)-4H-benzo[d][1,3]oxazin-6-yl]-2-(4-methyl-piperazin-1-yl)-acetamide] has a Ki of 6.12 nM.
Compound `Cc1ccc(CNC2=Nc3ccc(NC(=O)C4CC4)cc3CO2)o1` [Example 82, Cyclopropanecarboxylic acid {2-[(5-methyl-furan-2-ylmethyl)-amino]-4H-benzo[d][1,3]oxazin-6-yl}-amide] has a Ki of 11.7 nM.
With `COc1cccc2c1C(NC1=Nc3ccc(Nc4nccc(C(F)(F)F)n4)cc3CO1)CC2` (racemic) [Example 81, rac-N^2-(7-Methoxy-indan-1-yl)-N^6-(4-trifluoromethyl-pyrimidin-2-yl)-4H-benzo[d][1,3]oxazine-2,6-diamine] the Ki was 7.16 nM.
Compound `CN(C)S(=O)(=O)Nc1ccc2c(c1)COC(Nc1cccc(C3CC3)c1)=N2` [Example 135, N′-{2-[(3-cyclopropylphenyl)amino]-4H-benzo[d][1,3]oxazin-6-yl}-N,N-dimethylsulfamide] has a Ki of 71.7 nM.
Compound `COc1cccc2c1C(NC1=Nc3ccc(N)cc3CO1)CCC2` (racemic) [Example 22, rac-N^2-(8-Methoxy-1,2,3,4-tetrahydro-naphthalen-1-yl)-4H-benzo[d][1,3]oxazine-2,6-diamine] has a Ki of 7.72 nM.
For `C=Cc1ccc2c(c1)COC(N[C@@H]1CCc3ccccc31)=N2` [Example 134, (R)-Indan-1-yl-(6-vinyl-4H-benzo[d][1,3]oxazin-2-yl)-amine], the Ki was 13.5 nM.
`O=C(Nc1ccc2c(c1)COC(N[C@@H]1CCc3ccccc31)=N2)C1CC1` [Example 18, Cyclopropanecarboxylic acid [2-((R)-indan-1-ylamino)-4H-benzo[d][1,3]oxazin-6-yl]-amide] was tested, and the Ki was 0.83 nM.
Work on `CN(C)S(=O)(=O)Nc1ccc2c(c1)COC(NC1CCc3cc(F)ccc31)=N2` (racemic) [Example 64, rac-N,N-(Dimethyl)-N′-{2-(5-Fluoro-indan-1-ylamino)-4H-benzo[d][1,3]oxazin-6-yl}-sulfamide] yielded a Ki of 4.08 nM.
With `CN(C)S(=O)(=O)Nc1ccc2c(c1)COC(NC1CCCCCC1)=N2` [Example 99, N,N-(Dimethyl)-N′-{2-cycloheptylamino-4H-benzo[d][1,3]oxazin-6-yl-}-sulfamide] the Ki was 47.6 nM.
Compound `COCC1CN(CC(=O)Nc2ccc3c(c2)COC(NC2CCc4cccc(OC)c42)=N3)CCN1C` (stereo not drawn) [Example 146, N-[2-(7-Methoxy-indan-1-ylamino)-4H-benzo[d][1,3]oxazin-6-yl]-2-(3-methoxymethyl-4-methyl-piperazin-1-yl)-acetamide] has a Ki of 3.7 nM.
In the case of `c1ccc(CNc2ccc3c(c2)COC(Nc2cccc(C4CC4)c2)=N3)cc1` [Example 136, N^6-Benzyl-N^2-(3-cyclopropyl-phenyl)-4H-benzo[d][1,3]oxazine-2,6-diamine], the Ki is reported as 61.3 nM.
